Source: patent US8188077B2, “Apoptosis-inducing agents for the treatment of cancer and immune and autoimmune diseases” (Abbott Laboratories, priority 2010, dated 2012)

Each molecule was assayed against T1, Bcl-2 protein (Homo sapiens, UniProt P10415, DELINS35-91DVEENRTEAPEGTESE, form not given) (assay: Bcl-2 fluorescence polarization assay (FPA) binding). Settings: 10 nM Bcl-2 protein, 1 nM fluorescein-labeled BAX peptide, room temperature, read-out: Bcl-2 FPA 11pt Ki.
T1 construct: fused on or other part: Bcl-xL (Q07817) residues 29-44 stand in place of Bcl-2's own unstructured loop 35-91; The C-terminal membrane anchor (208-239) is absent
T1 sequence (P10415 with tags, fused parts or gaps with the stated changes): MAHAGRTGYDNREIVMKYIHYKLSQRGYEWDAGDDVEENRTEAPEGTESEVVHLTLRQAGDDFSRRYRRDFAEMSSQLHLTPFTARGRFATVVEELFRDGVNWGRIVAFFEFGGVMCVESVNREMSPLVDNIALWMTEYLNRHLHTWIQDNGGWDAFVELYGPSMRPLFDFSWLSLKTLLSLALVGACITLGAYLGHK
Description: Assays for the inhibition of Bcl-2 were performed in 96-well microtiter plates. Compounds of the instant invention were diluted in DMSO to concentrations between […] and 10 pM and introduced into each well of the plate. A mixture totaling 125 µL per well of assay buffer (20 mM phosphate buffer (pH 7.4), 1 mM EDTA, 0.05% PF-68), 10 nM of Bcl-2 protein (prepared according to the procedure described in PNAS 2001, 98, 3012-3017), 1 nM fluorescein-labeled BAX peptide (prepared in-house), and the DMSO solution of the compound of the instant invention was shaken for 2 minutes and placed in a LJL Analyst (LJL Bio Systems, CA. Polarization was measured at room temperature using a continuous Fluorescein lamp (excitation 485 nm, emission 530 nm). Ki values were calculated using Microsoft Excel.

Q: How did the Ki turn out when `C[C@@H]1[C@@H](N(Cc2ccc(-c3ccc(C(=O)NS(=O)(=O)c4ccc(NCC5CCCCC5)c([N+](=O)[O-])c4)cc3)cc2)C(=O)CCc2ccccc2)C[C@H]2C[C@@H]1C2(C)C` [Example 60, N-({4-[(cyclohexylmethyl)amino]-3-nitrophenyl}sulfonyl)-4′-({(3-phenylpropanoyl)[(1S,2S,3S,5R)-2,6,6-trimethylbicyclo[3.1.1]hept-3-yl]amino}methyl)biphenyl-4-carboxamide] was run?
A: 504 nM

Q: How did the Ki turn out when `O=C(NS(=O)(=O)c1ccc(NCC2CCCCC2)c([N+](=O)[O-])c1)c1ccc(N2CCC3CC2CN3CC23CC4CC(CC(C4)C2)C3)cc1` (centres unmarked) [Example 8, 4-{6-[adamantan-1-ylmethyl]-2,6-diazabicyclo[3.2.1]oct-2-yl}-N-({4-[(cyclohexylmethyl)amino]-3-nitrophenyl}sulfonyl)benzamide] was run?
A: 84.6 nM

Q: For `O=C(NS(=O)(=O)c1ccc(NC2CCOCC2)c([N+](=O)[O-])c1)c1ccc(NCC2C3CC4CC(C3)CC2C4)cc1` (centres unmarked) [Example 50, 4-{[adamantan-2-ylmethyl]amino}-N-{[3-nitro-4-(tetrahydro-2H-pyran-4-ylamino)phenyl]sulfonyl}benzamide], which Ki is on record?
A: 3560 nM

Q: `C[C@@H]1[C@H]2C[C@@H](C[C@H]1Nc1ccc(S(=O)(=O)NC(=O)c3ccc(N4CCN(Cc5ccccc5-c5ccc(Cl)cc5)CC4)cc3)cc1[N+](=O)[O-])C2(C)C` [Example 1, 4-{4-[(4′-chlorobiphenyl-2-yl)methyl]piperazin-1-yl}-N-[(3-nitro-4-{[(1R,2R,3R,5S)-2,6,6-trimethylbicyclo[3.1.1]hept-3-yl]amino}phenyl)sulfonyl]benzamide] was tested. Which Ki did it give?
A: 174 nM

Q: `C[C@@H]1[C@@H](N(C(=O)CCc2ccccc2)C2CCN(c3ccc(C(=O)NS(=O)(=O)c4ccc(N[C@H](CCN5CCOCC5)CSc5ccccc5)c(S(=O)(=O)C(F)(F)F)c4)cc3)CC2)C[C@H]2C[C@@H]1C2(C)C` [Example 9, N-[(4-{[(2R)-4-(morpholin-4-yl)-1-(phenylthio)butan-2-yl]amino}-3-[(trifluoromethyl)sulfonyl]phenyl)sulfonyl]-4-(4-{(3-phenylpropanoyl)[(1S,2S,3S,5R)-2,6,6-trimethylbicyclo[3.1.1]hept-3-yl]amino}piperidin-1-yl)benzamide] was tested. Which Ki did it give?
A: < 20 nM

Q: Which Ki does the source give for `C[C@@H]1[C@@H](Nc2ccccc2CN2CCN(c3ccc(C(=O)NS(=O)(=O)c4ccc(NCC5CCOCC5)c([N+](=O)[O-])c4)cc3)CC2)C[C@@H]2C[C@H]1C2(C)C` [Example 32, N-({3-nitro-4-[(tetrahydro-2H-pyran-4-ylmethyl)amino]phenyl}sulfonyl)-4-[4-(2-{[(1R,2S,3S,5S)-2,6,6-trimethylbicyclo[3.1.1]hept-3-yl]amino}benzyl)piperazin-1-yl]benzamide] here?
A: 91.9 nM

Q: `C[C@@H]1[C@@H](N2CCN(c3ccc(C(=O)NS(=O)(=O)c4ccc(NCC5CCCCC5)c([N+](=O)[O-])c4)cc3)CC2)C[C@H]2C[C@@H]1C2(C)C` [Example 53, N-({4-[(cyclohexylmethyl)amino]-3-nitrophenyl}sulfonyl)-4-{4-[(1S,2S,3S,5R)-2,6,6-trimethylbicyclo[3.1.1]hept-3-yl]piperazin-1-yl}benzamide] was tested. Which Ki did it give?
A: 845 nM

Q: With `CC1C2CC(C=C2c2ccccc2CN2CCN(c3ccc(C(=O)NS(=O)(=O)c4ccc(NCC5CCOCC5)c([N+](=O)[O-])c4)cc3)CC2)C1(C)C` (centres unmarked) [Example 28, N-({3-nitro-4-[(tetrahydro-2H-pyran-4-ylmethyl)amino]phenyl}sulfonyl)-4-(4-{2-[5,5,6-trimethylbicyclo[2.2.1]hept-2-en-2-yl]benzyl}piperazin-1-yl)benzamide] as the molecule, how does the Ki read?
A: 29.6 nM

Q: For `CC(=O)N(C1CCN(c2ccc(C(=O)NS(=O)(=O)c3ccc(NCC4CCCCC4)c([N+](=O)[O-])c3)cc2)CC1)[C@H]1C[C@H]2C[C@@H]([C@@H]1C)C2(C)C` [Example 2, 4-(4-{acetyl[(1S,2S,3S,5R)-2,6,6-trimethylbicyclo[3.1.1]hept-3-yl]amino}piperidin-1-yl)-N-({4-[(cyclohexylmethyl)amino]-3-nitrophenyl}sulfonyl)benzamide], which Ki is on record?
A: 220 nM

Q: For `CN1c2ccccc2-c2ccccc2C1c1ccccc1CN1CCN(c2ccc(C(=O)NS(=O)(=O)c3ccc(NCC4CCOCC4)c([N+](=O)[O-])c3)cc2)CC1` (centres unmarked) [Example 66, 4-{4-[2-(5-methyl-5,6-dihydrophenanthridin-6-yl)benzyl]piperazin-1-yl}-N-({3-nitro-4-[(tetrahydro-2H-pyran-4-ylmethyl)amino]phenyl}sulfonyl)benzamide], which Ki is on record?
A: 7.87 nM

Q: `O=C(NS(=O)(=O)c1ccc(NC2CCOCC2)c([N+](=O)[O-])c1)c1ccc(NC2C3CC4CC(C3)CC2C4)cc1` (centres unmarked) [Example 84, 4-[adamantan-2-ylamino]-N-{[3-nitro-4-(tetrahydro-2H-pyran-4-ylamino)phenyl]sulfonyl}benzamide] was tested. Which Ki did it give?
A: 2380 nM

Q: `CC1(C)[C@H]2CC(CN3CCN(c4ccc(C(=O)NS(=O)(=O)c5ccc(NCC6CCCCC6)c([N+](=O)[O-])c5)cc4)CC3)=C(c3ccc(Cl)cc3)[C@@H]1C2` [Example 19, 4-(4-{[(1R,5R)-2-(4-chlorophenyl)-6,6-dimethylbicyclo[3.1.1]hept-2-en-3-yl]methyl}piperazin-1-yl)-N-({4-[(cyclohexylmethyl)amino]-3-nitrophenyl}sulfonyl)benzamide] was tested. Which Ki did it give?
A: 603 nM

Q: For `COc1ccc(-c2ccc3cc(C(=O)NS(=O)(=O)c4ccc(NCC5CCCCC5)c([N+](=O)[O-])c4)ccc3c2)cc1C12CC3CC(CC(C3)C1)C2` [Example 80, 6-{3-[adamantan-1-yl]-4-methoxyphenyl}-N-({4-[(cyclohexylmethyl)amino]-3-nitrophenyl}sulfonyl)-2-naphthamide], which Ki is on record?
A: 1300 nM

Q: `O=C(NS(=O)(=O)c1ccc(NCC2CCOCC2)c([N+](=O)[O-])c1)c1ccc(N2CCC(=Cc3ccccc3-c3ccc(CN4C5CCCC4CC5)s3)CC2)cc1` [Example 71, 4-[4-(2-{5-[8-azabicyclo[3.2.1]oct-8-ylmethyl]-2-thienyl}benzylidene)piperidin-1-yl]-N-({3-nitro-4-[(tetrahydro-2H-pyran-4-ylmethyl)amino]phenyl}sulfonyl)benzamide] was tested. Which Ki did it give?
A: < 20 nM

Q: Which Ki does the source give for `O=C(NS(=O)(=O)c1ccc(NC2CCOCC2)c([N+](=O)[O-])c1)c1ccc(N2CCN(C(=O)C3C4CC5CC(C4)CC3C5)CC2)cc1` (centres unmarked) [Example 42, 4-{4-[adamantan-2-ylcarbonyl]piperazin-1-yl}-N-{[3-nitro-4-(tetrahydro-2H-pyran-4-ylamino)phenyl]sulfonyl}benzamide] here?
A: 2480 nM

Q: How did the Ki turn out when `C[C@@H]1[C@@H](N(C(=O)CCc2ccccc2)C2CCN(c3ccc(C(=O)NS(=O)(=O)c4ccc(NCC5CCCCC5)c([N+](=O)[O-])c4)cc3)CC2)C[C@H]2C[C@@H]1C2(C)C` [Example 46, N-({4-[(cyclohexylmethyl)amino]-3-nitrophenyl}sulfonyl)-4-(4-{(3-phenylpropanoyl)[(1S,2S,3S,5R)-2,6,6-trimethylbicyclo[3.1.1]hept-3-yl]amino}piperidin-1-yl)benzamide] was run?
A: 33 nM

Q: Which Ki does the source give for `O=C(NS(=O)(=O)c1ccc(NCC2CCCCC2)c([N+](=O)[O-])c1)c1ccc(N2CCN(C34CC5CC(CC(C5)C3)C4)CC2)cc1` [Example 54, 4-{4-[adamantan-1-yl]piperazin-1-yl}-N-({4-[(cyclohexylmethyl)amino]-3-nitrophenyl}sulfonyl)benzamide] here?
A: > 9730 nM
